{"source": "patent US12729377B2", "about": "“RNAi agents and compositions for inhibiting expression of angiopoietin-like 3 (ANGPTL3), and methods of use” (Arrowhead Pharmaceuticals, Inc., priority 2017, dated 2026)", "key": {"ANGPTL3 gene [1]": {"test_system": "ANGPTL3 gene", "test": "Example 9: serum total cholesterol in cynomolgus monkeys", "type": "in vivo, cynomolgus macaque (Macaca fascicularis)", "settings": "2.0 mg/kg single SC injection day 1, cynos, n=3", "procedure": "Additional ANGPTL3 RNAi agents were evaluated in cynomolgus monkeys. On day 1, cynomolgus macaque (Macaca fascicularis) primates (also referred to herein as “cynos”) were administered a single subcutaneous injection of 0.3 mL/kg (approximately 2-3 mL volume, depending on animal mass) containing 2.0 mg/kg of an ANGPTL3 RNAi agent, which included either AD05488, AD05743, AD05775, or AD05841, each formulated in saline. […] ANGPTL3 RNAi agents AD05488, AD05743, and AD05775 included nucleotide sequences designed to target position 304 of the ANGPTL3 gene. ANGPTL3 RNAi agent AD05841 included nucleotide sequences designed to target position 1035 of the ANGPTL3 gene.\nThree (3) cynos in each group were tested (n=3). Blood samples were drawn and serum samples were analyzed on days −14 (predose), −7 (predose), 1 (pre-dose), 8, 15, 22, 29, and 35. Cynos were fasted overnight prior to each collection. ANGPTL3 protein levels in serum were measured by ELISA assay (R&D Systems), according to the manufacturer's recommendations. Triglycerides, total cholesterol, high-density lipoprotein (HDL), and low-density lipoprotein (LDL) in serum were measured on a Cobas® Integra 400 (Roche Diagnostics), according to the manufacturer's recommendations.\nThe ANGPTL3 protein levels, triglyceride levels, total cholesterol levels, HDL levels, and LDL levels for each animal were normalized. For normalization, the level of ANGPTL3 protein, triglyceride, HDL, and total cholesterol, respectively, for each animal at a time point, was divided by the average pre-treatment level of expression in that animal (in this case at days −14, −7, and 1) to determine the ratio of expression “normalized to pre-treatment.”"}, "ANGPTL3 gene [2]": {"test_system": "ANGPTL3 gene", "test": "Example 12: serum triglycerides in LDLR knockout mice", "type": "in vivo, LDLR KO mice", "source_text": "To evaluate the effect of RNAi agent administration in a disease model, mice having a genetic mutation for the LDL receptor (referred to herein as LDLR KO mice) were commercially obtained (The Jackson Laboratory). The LDLR KO mice are homozygous for the Ldlr^tm1Her mutation, and have elevated serum cholesterol levels, particularly when placed on a high fat diet. For three weeks prior to the onset of the study, thirty-nine (39) LDLR KO mice were placed on a high fat diet (Teklad Custom Diets TD.88137). An additional eight (8) LDLR KO mice were placed on a normal chow diet over the same three-week period. Pre-dose serum samples were taken on day −15 and day −1 after a four hour fast. At day 1, each mouse was given a single subcutaneous administration of 200 μl/30 g animal body weight containing the respective mg/kg dose of an ANGPTL3 RNAi agent in D5W (dextrose in 5% water), control (D5W) with no RNAi agent, or a control RNAi agent that included a nucleotide sequence designed to target the Hepatitis B Virus (HBV) genome. A second injection of the same formulation was administered to the animals on day 29. The dosing regimen for the study is recited in the following Table 60:\nEach mouse remained on its respective diet through the duration of study. The RNAi agent tested (AD05488) included a modified sequence and an N-acetyl-galactosamine-containing targeting ligand conjugated to the 5′ terminal end of the sense strand. (See Tables 3, […] modified sequences and targeting ligand structures). The injections were performed between the skin and muscle (i.e. subcutaneous injections) into the loose skin over the neck and shoulder area. Serum was collected on days 8, 15, 22, 29 (pre-second dose), 36, 43, 50, and 57. LDLR KO mice were fasted for four hours prior to each collection. On day 15, four (4) LDLR KO mice from Groups 1, 2, and 3 (i.e., the groups being administered the high fat “Western” diet) were sacrificed after serum collection, and on day 29, an additional four (4) LDLR KO mice from Groups 1, 2, and 3 were sacrificed after serum collection, for the purpose of performing mRNA assessments.\nANGPTL3 protein levels in serum were measured by ELISA assay (R&D Systems), according to the manufacturer's recommendations. Triglycerides, total cholesterol, high-density lipoprotein (HDL), and low-density lipoprotein (LDL) in serum were measured on a Cobas® Integra 400 (Roche Diagnostics), according to the manufacturer's recommendations.\nThe ANGPTL3 protein levels, triglyceride levels, total cholesterol levels, HDL levels, and LDL levels for each animal were normalized. For normalization, respective levels of ANGPTL3 protein, TG, total cholesterol, HDL, or LDL for each animal at a time point was divided by the average pre-treatment level of expression in that animal (in this case the average of day −15 and day −1) to determine the ratio of expression “normalized to pre-treatment.”\nExpression at a specific time point was then normalized to the D5W control group that was administered the same diet (i.e., either the high fat “Western” diet or the normal chow-fed diet) by dividing the “normalized to pre-treatment” ratio for an individual animal by the mean “normalized to pretreatment” ratio of all mice in the D5W control group on the respective same diet, resulting in expression for each time point normalized to that in the control group."}}, "note": "In the oligonucleotide strings, read from the 5' end, every base follows the letter of its sugar. An asterisk marks phosphorothioate; unmarked linkages are phosphodiester. Other units and linkages are bracketed, terminal groups are in braces. A string of capitals states the bases alone. {NAG37} = tridentate N-acetyl-galactosamine targeting ligand, structure (NAG37)s; [invAb] = inverted abasic unit; m = 2'-O-methyl; f = 2'-fluoro", "data": [{"substance": "AD05488: RNAi agent duplex: antisense AM07235-AS, sense AM07234-SS (antisense mU*fA*mC*fUmGfAmUfCmAfAmAfUmAfUmGfUmUfGmAfG*mC; sense {NAG37}*[invAb]*mGmCmUmCmAmAmCmAfUfAfUmUmUmGmAmUmCmAmGmUmA*[invAb])", "values": [{"measurement": "Average Total Cholesterol Normalized to Pre-Treatment", "setting": "ANGPTL3 gene [1]; Day 8", "value": 0.823}, {"measurement": "Average Total Cholesterol Normalized to Pre-Treatment", "setting": "ANGPTL3 gene [1]; Day 15", "value": 0.744}, {"measurement": "Average Total Cholesterol Normalized to Pre-Treatment", "setting": "ANGPTL3 gene [1]; Day 22", "value": 0.709}, {"measurement": "Average Total Cholesterol Normalized to Pre-Treatment", "setting": "ANGPTL3 gene [1]; Day 29", "value": 0.687}, {"measurement": "Average Total Cholesterol Normalized to Pre-Treatment", "setting": "ANGPTL3 gene [1]; Day 35", "value": 0.659}, {"measurement": "reductions in TG levels", "setting": "ANGPTL3 gene [2]; 3.0 mg/kg on days 1 and 29 (Groups 2 and 5), LDLR KO mice", "value": "significant reductions"}, {"measurement": "Avg TG (Triglycerides) Normalized to Pre-Treatment and Control (Diet Matched)", "setting": "ANGPTL3 gene [2]; 3.0 mg/kg sc day 1, High Fat Diet, Day 8", "value": 0.121}, {"measurement": "Avg TG (Triglycerides) Normalized to Pre-Treatment and Control (Diet Matched)", "setting": "ANGPTL3 gene [2]; 3.0 mg/kg sc day 1, High Fat Diet, Day 15", "value": 0.086}, {"measurement": "Avg TG (Triglycerides) Normalized to Pre-Treatment and Control (Diet Matched)", "setting": "ANGPTL3 gene [2]; 3.0 mg/kg sc day 1, High Fat Diet, Day 22", "value": 0.094}, {"measurement": "Avg TG (Triglycerides) Normalized to Pre-Treatment and Control (Diet Matched)", "setting": "ANGPTL3 gene [2]; 3.0 mg/kg sc day 1, High Fat Diet, Day 29 (pre-second dose)", "value": 0.096}, {"measurement": "Avg TG (Triglycerides) Normalized to Pre-Treatment and Control (Diet Matched)", "setting": "ANGPTL3 gene [2]; 3.0 mg/kg sc day 1, Normal Diet, Day 8", "value": 0.472}, {"measurement": "Avg TG (Triglycerides) Normalized to Pre-Treatment and Control (Diet Matched)", "setting": "ANGPTL3 gene [2]; 3.0 mg/kg sc day 1, Normal Diet, Day 15", "value": 0.503}, {"measurement": "Avg TG (Triglycerides) Normalized to Pre-Treatment and Control (Diet Matched)", "setting": "ANGPTL3 gene [2]; 3.0 mg/kg sc day 1, Normal Diet, Day 22", "value": 0.473}, {"measurement": "Avg TG (Triglycerides) Normalized to Pre-Treatment and Control (Diet Matched)", "setting": "ANGPTL3 gene [2]; 3.0 mg/kg sc day 1, Normal Diet, Day 29 (pre-second dose)", "value": 0.480}, {"measurement": "Avg TG (Triglycerides) Normalized to Pre-Treatment and Control (Diet Matched)", "setting": "ANGPTL3 gene [2]; 3.0 mg/kg sc days 1 and 29, High Fat Diet, Day 36", "value": 0.104}, {"measurement": "Avg TG (Triglycerides) Normalized to Pre-Treatment and Control (Diet Matched)", "setting": "ANGPTL3 gene [2]; 3.0 mg/kg sc days 1 and 29, High Fat Diet, Day 43", "value": 0.084}, {"measurement": "Avg TG (Triglycerides) Normalized to Pre-Treatment and Control (Diet Matched)", "setting": "ANGPTL3 gene [2]; 3.0 mg/kg sc days 1 and 29, High Fat Diet, Day 50", "value": 0.091}, {"measurement": "Avg TG (Triglycerides) Normalized to Pre-Treatment and Control (Diet Matched)", "setting": "ANGPTL3 gene [2]; 3.0 mg/kg sc days 1 and 29, High Fat Diet, Day 57", "value": 0.079}, {"measurement": "Avg TG (Triglycerides) Normalized to Pre-Treatment and Control (Diet Matched)", "setting": "ANGPTL3 gene [2]; 3.0 mg/kg sc days 1 and 29, Normal Diet, Day 36", "value": 0.548}, {"measurement": "Avg TG (Triglycerides) Normalized to Pre-Treatment and Control (Diet Matched)", "setting": "ANGPTL3 gene [2]; 3.0 mg/kg sc days 1 and 29, Normal Diet, Day 43", "value": 0.348}, {"measurement": "Avg TG (Triglycerides) Normalized to Pre-Treatment and Control (Diet Matched)", "setting": "ANGPTL3 gene [2]; 3.0 mg/kg sc days 1 and 29, Normal Diet, Day 50", "value": 0.625}, {"measurement": "Avg TG (Triglycerides) Normalized to Pre-Treatment and Control (Diet Matched)", "setting": "ANGPTL3 gene [2]; 3.0 mg/kg sc days 1 and 29, Normal Diet, Day 57", "value": 0.438}]}]}
